Where two headings read alike, the source gives them in different places.
Experiments:
[1] = system: carrageenan induced edema in mouse foot pads; assay: Anti-inflammatory screen (carrageenan induced foot edema); assay type: in vivo, mice; settings: for Anti-inflammatory Screen: mice
Protocol: CF1 male mice (about 30 g) were administered test drugs at 10 mg/kg in 0.05% polysorbate .80-water intraperitoneally 3 hr and 30 min prior to 0.05 ml of 2% carrageenan in 0.9% saline injected into the plantar surface of the right hind foot. Saline injected into the left hind foot served as a base line. After 3 hr, both feet were excised at the tibiotarsal (ankle) joint according to the modified (Roszkowski et al., J. Pharm. Exp. Ther., 179, 114 1971) method of Winter, resulting in an 87 mg net increase in the weight of the control animals' feet.

Cathepsin [2] = assay: Lysosomal free cathepsin activity, PMNs; assay type: cell-based; settings: 5 μmoles; for PMNs % Free Cathespin Activity, pH5: in vitro, 60 min
Protocol: (§1) Polymorphonuclear neutrophils (PMNs) were collected from the peritoneal cavity four hr after the injection of 35 ml of 0.5% oyster glycogen in isotonic saline (Orange et al., J. Exp. Med., 127, 767 1968). The PMNs were centrifuged down at 800 g for 20 min, washed, and resuspended in minumen essential medium (MEM) with 10% fetal calf serum pH 7.4.
(§2) Acid phosphatase activity (Gianetto et al., Biochem J., 59, 433 1955) was carried out by incubating with 0.1 Mβ-glycerol phosphate in 0.1 M acetate, pH 5.0 with 5 μmoles of test drugs in 1% carboxymethylcellulose (CMC) for 20 min with liver homogenate and 60 min with resuspended PMNs. Lysosome enzymes were released by 0.02% alkyl phenoxy polyethoxy ethanol-100 to obtain the total enzymatic activity. The reaction was stopped with 10% trichloroacetic acid and the solution centrifuged. Aliquots of the supernatant were assayed for inorganic phophate content by the method of Chen et al., Anal Chem., 28, 1756 (1956). Percent free acid phosphatase was calculated. Cathepsin activity was determined in an analagous manner except the substrate used was 2% azocasein (Schleuning et al., Methods in Enzymology, XLV, 330 1976) in 0.1 M acetate buffer pH 5.0. The supernatant was assayed for acid soluble peptide fragments at 366 nm. Percent free cathepsin activity was calculated.

[3] = molecular target: T1, prostaglandin synthetase from beef seminal vesicle (Bos taurus, UniProt O62664); assay: Prostaglandin synthetase activity; assay type: biochemical; settings: 1 h; 10^-6 M; read-out: Prostaglandin Synthesis
T1 construct: purchased; host or cells: beef seminal vesicle
T1 sequence (O62664 25-600): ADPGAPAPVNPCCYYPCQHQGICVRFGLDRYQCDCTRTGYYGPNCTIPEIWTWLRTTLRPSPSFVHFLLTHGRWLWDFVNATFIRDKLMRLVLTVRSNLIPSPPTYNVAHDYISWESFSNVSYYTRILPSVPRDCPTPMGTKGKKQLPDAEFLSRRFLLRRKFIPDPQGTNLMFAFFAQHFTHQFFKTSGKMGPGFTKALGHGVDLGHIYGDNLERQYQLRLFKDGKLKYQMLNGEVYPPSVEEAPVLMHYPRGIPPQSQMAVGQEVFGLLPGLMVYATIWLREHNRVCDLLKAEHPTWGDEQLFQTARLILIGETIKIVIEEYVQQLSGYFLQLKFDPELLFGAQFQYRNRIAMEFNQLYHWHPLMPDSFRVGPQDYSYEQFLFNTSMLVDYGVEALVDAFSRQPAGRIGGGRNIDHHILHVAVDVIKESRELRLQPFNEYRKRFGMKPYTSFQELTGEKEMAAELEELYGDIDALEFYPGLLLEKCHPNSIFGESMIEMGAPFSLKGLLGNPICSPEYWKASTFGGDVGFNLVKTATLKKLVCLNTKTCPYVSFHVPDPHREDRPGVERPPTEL
Protocol: After 1 hr at 37° C. the reaction was stopped with 1 N HCl and extracted with ethyl ether and evaporated. […] The plates were dried and developed in iodine vapor and with the use of prostaglandin standards the appropriate areas were scraped and counted for ^3 H content. Indometacin was used as a standard at 10^-4 M concentration. Test drugs were used at 10^-6 M.

liver mitochondria [4] = assay: Oxidative phosphorylation, succinate as substrate; assay type: biochemical, rats; settings: 5 μmoles; for Oxidative Phosphorylation Succinate State 3: ADP stimulated respiration; for Oxidative Phosphorylation Succinate State 4: basal respiration
Protocol: (§3) Basal and adenosine diphosphate stimulated respiration on 10% liver homogenates was measured using succinate or αketoglutarate as substrate. See Glatt, et al., supra. The reaction vessel contained sucrose 55μ moles, KCl 22μ moles, K2 HPO4 22μ moles, test compounds at 5μ moles in 1% CMC and sodium succinate 90μ moles or αketoglutarate 60μ moles in a total volume of 1.8 ml. […] The rate of respiration was calculated at μl of O2 consumed/hr/mg wet weight of liver.

in vivo = settings: mouse
Cathepsin [5] = assay: Lysosomal free cathepsin activity, liver homogenate; assay type: biochemical, rats; settings: 5 μmoles, in vitro; 20 min
Protocol: (§4) Lysosomal enzymatic assays - Sprague Dawley rats (about 160 g) were sacrificed, the liver excised, and a 10% homogenate (4x) in 0.25 M sucrose and 0.001 M (ethylenedinitrilo) tetra acetic acid, ph 7.2 was prepared.
as §2

liver mitochondria [6] = assay: Oxidative phosphorylation, α-ketoglutarate as substrate; assay type: biochemical, rats; settings: 5 μmoles; for Oxidative Phosphorylation α Ketoglutarate State 3: ADP stimulated respiration; for Oxidative Phosphorylation α Ketoglutarate State 4: basal respiration
Protocol: as §3

Acid phosphatase [7] = assay: Lysosomal free acid phosphatase activity, PMNs; assay type: cell-based; settings: 5 μmoles, in vitro; 60 min
Protocol: as §1, §2

cAMP levels in PMNs = assay: Cyclic-3',5'-adenosine monophosphate levels (cAMP) in PMNs; assay type: cell-based; settings: 1 h
Protocol: as §1
Isolated PMNs were incubated with test drugs at 5μ moles for 1 hr at 37° C. in MEM at pH 7.4. The reaction was stopped with 6% trichloroacetic acid. The cyclic-3',5'-adenosine monophosphate levels were determined by the radioimmunoassay of Gilman, Proc. Natl. Acad. Sci. (USA), 67, 305 (1970), using 3H(G)-cyclic-3',5'-adenosine monophosphate (39.8 Cu/m mol). Results were calculated in p mole/10^7 PMNs cells.

Acid phosphatase [8] = assay: Lysosomal free acid phosphatase activity, liver homogenate; assay type: biochemical, rats; settings: 5 μmoles, in vitro; 20 min
Protocol: as §4, §2

CF1 male mice = assay: Writhing reflex (acetic acid); assay type: in vivo; settings: for Writhing Reflex: 20 mg/kg intraperitoneally, mice
Protocol: CF1 male mice were administered test drugs at 20 mg/kg intraperitoneally 20 min (see Hendershat et al., J. Pharmacol Exp. Ther. 125, 237 1959) prior to the administration of 0.5 ml of 0.6% acetic acid (Vingar et al., European J. PHarmacol, 37, 23 1976). After 5 min the number of stretches, characterized by repeated contractures of the abdominal musculature accompanied by extension of the hind limbs, was counted for the next 10 min. The control mice had 78 stretch reflexes per 10 min.

[9] = pH 7.4, 5 μmoles, in vitro, read-out: PMNs cAMP Level

SMILES | Anti-inflammatory Screen ([1]; 10 mg/kg × 2 intraperitoneally) [% Control] | inhibition of the carrageenan induced edema in mouse foot pads ([1]; text summary of Table II) | PMNs % Free Cathespin Activity, pH5 (Cathepsin [2]) [% Control] | activity at 1 µM [3] [%] | Oxidative Phosphorylation Succinate State 3 (liver mitochondria [4]) [% Control] | Oxidative Phosphorylation Succinate State 4 (liver mitochondria [4]) [% Control] | LD50 (in vivo) [mg/kg] | Liver % Free Cathepsin Activity, pH5 (Cathepsin [5]) [% Control] | uncoupling with α-ketoglutarate as substrate (liver mitochondria [6]) | Oxidative Phosphorylation α Ketoglutarate State 3 (liver mitochondria [6]) [% Control] | Oxidative Phosphorylation α Ketoglutarate State 4 (liver mitochondria [6]) [% Control] | PMNs % Free Acid Phosphatase Activity, pH5 (Acid phosphatase [7]) [% Control] | activity at 5 µmol (cAMP levels in PMNs; [9]) [%] | Liver % Free Acid Phosphatase Activity, pH5 (Acid phosphatase [8]) [% Control] | Writhing Reflex (CF1 male mice) [% Control] | inhibition of the writhing reflex (CF1 male mice; text summary of Table II) [%] | Anti-inflammatory Screen ([1]; 1/3 dose (of 10 mg/kg × 2)) [% Control] | activity at 5 µmol (cAMP levels in PMNs; pH 7.4, read-out: PMNs cAMP Level) [%] | inhibition of PMN cathepsin activity (Cathepsin [2])
[BH3-][NH2+]C(C)(C)C [Compound I, (CH3)3 CNH2.BH3] | 41 | at least 50% | 100 ± 4 | 100 ± 3 | 63 ± 8 | 118 ± 11 | 16 | 58 ± 5 | uncoupling | 63 ± 14 | 160 ± 35 | 100 ± 9 | 58 | 77 ± 4 | – | – | – | – | –
CCNC(=O)[BH2-][N+](C)(C)C [VII, (CH3)3 N.BH2 CON(H)CH2 CH3] | 63 | – | 22 ± 5 | 100 ± 7 | 74 ± 9 | 114 ± 13 | 320 | – | uncoupling | 45 ± 18 | 113 ± 37 | 100 ± 2 | 98 | 78 ± 7 | 29 | 70 | – | – | –
CCNC(=O)[BH2-][N+](C)(C)CC[N+](C)(C)[BH2-]C(=O)NCC [XIII, N,N,N^1,N^1 -Tetramethylethylenediamine-bis(N-ethylamidoborane)] | 65 | – | 70 ± 6 | 100 ± 4 | 66 ± 8 | 117 ± 8 | > 1000 | – | uncoupling | 50 ± 24 | 162 ± 43 | 100 ± 7 | 92 | 74 ± 4 | 55 | – | – | – | –
O=C(O)[BH2-][n+]1ccccc1 [XVI, Pyridine-carboxyborane] | – | – | 31 ± 4 | 76 ± 5 | 75 ± 15 | 110 ± 13 | – | 58 ± 4 | – | 63 ± 15 | 109 ± 30 | 100 ± 5 | – | 77 ± 8 | 53 | – | 74 | 100 | –
CCOC(=O)[BH2-][N+](C)(C)C [XVIII, (CH3)3 N.BH2 COOCH2 CH3] | 87 | – | 16 ± 3 | – | 61 ± 19 | 119 ± 18 | > 500 | – | – | 54 ± 8 | 126 ± 51 | – | – | – | 106 | – | – | – | at least 82%
